Measured values published in US20240342320A1, “POLYPEPTIDE TARGETING INTEGRIN ALPHA 6 AND USE THEREOF” (GUANGZHOU GENBIONOVA MEDICAL TECHNOLOGY CO., LTD., priority 2021, published 2024).
Like-named read-outs stand apart in the source and are kept apart here. One block for each molecule: values may come before it. Positions of bridges follow the written chain, without caps; N, C: chain ends. Non-standard residues stand in square brackets, D forms with d. Residues, ends and D or L forms follow the SMILES beside them. Primed or numbered codes have the meaning given here. No end group written: not given here. FITC′ = not defined here; PEG4′ = not defined here

Columns and labels:
[1] = target: integrin α6β1 (Homo sapiens, UniProt P05556+P23229); assay: MST affinity to integrin α6β1; format: binding
Sequence of integrin α6β1 (P05556 21-728 partner limits assumed, one chain of several): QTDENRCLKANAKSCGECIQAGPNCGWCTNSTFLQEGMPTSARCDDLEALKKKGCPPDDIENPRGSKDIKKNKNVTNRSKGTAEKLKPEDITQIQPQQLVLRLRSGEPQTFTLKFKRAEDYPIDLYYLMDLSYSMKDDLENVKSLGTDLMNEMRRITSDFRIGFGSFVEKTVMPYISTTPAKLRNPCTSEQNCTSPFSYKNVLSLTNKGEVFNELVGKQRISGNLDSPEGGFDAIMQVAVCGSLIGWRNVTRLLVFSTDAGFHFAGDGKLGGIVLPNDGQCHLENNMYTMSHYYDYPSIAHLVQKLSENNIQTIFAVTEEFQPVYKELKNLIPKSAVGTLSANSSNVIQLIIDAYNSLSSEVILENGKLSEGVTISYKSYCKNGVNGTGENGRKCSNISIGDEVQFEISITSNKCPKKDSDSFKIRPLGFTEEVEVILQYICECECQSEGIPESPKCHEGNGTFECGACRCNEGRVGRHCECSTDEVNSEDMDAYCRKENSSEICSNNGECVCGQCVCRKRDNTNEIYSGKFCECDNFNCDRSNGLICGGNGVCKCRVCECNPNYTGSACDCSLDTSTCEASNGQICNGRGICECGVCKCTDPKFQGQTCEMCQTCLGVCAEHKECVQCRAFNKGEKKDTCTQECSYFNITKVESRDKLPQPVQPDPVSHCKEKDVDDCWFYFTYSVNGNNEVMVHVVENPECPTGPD

[2] = target: T1, integrin α6β4 (Homo sapiens, UniProt P23229); assay: Microscale thermophoresis (MST) affinity to integrin α6β4; format: binding
T1 sequence (P23229 24-1050 limits assumed): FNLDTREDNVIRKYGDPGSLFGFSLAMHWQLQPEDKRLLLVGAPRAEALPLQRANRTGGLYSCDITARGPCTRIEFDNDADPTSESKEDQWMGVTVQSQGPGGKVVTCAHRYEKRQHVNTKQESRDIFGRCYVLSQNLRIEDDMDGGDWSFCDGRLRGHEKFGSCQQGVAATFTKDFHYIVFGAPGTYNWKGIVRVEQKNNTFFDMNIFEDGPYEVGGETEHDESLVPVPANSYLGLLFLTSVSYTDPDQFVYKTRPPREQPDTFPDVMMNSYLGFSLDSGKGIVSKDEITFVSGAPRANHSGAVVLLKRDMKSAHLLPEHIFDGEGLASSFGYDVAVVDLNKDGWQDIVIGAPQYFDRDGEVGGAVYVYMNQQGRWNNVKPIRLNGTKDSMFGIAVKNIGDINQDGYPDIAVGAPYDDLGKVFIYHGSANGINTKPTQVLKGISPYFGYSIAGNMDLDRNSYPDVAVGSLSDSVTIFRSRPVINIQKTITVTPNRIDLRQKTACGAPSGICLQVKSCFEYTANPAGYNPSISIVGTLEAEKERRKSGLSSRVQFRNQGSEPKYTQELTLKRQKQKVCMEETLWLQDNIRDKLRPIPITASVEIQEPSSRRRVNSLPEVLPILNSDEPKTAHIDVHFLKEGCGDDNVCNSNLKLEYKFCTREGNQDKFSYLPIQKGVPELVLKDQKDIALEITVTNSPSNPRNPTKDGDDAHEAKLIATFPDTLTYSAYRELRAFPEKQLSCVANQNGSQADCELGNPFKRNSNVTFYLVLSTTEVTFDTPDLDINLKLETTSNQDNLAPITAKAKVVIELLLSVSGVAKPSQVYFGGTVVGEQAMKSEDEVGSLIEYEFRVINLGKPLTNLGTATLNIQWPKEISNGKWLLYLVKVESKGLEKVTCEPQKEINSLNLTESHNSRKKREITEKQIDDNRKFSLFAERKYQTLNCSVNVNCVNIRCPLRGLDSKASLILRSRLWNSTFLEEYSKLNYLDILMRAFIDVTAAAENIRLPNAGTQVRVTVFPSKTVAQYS
T1 sequence (P16144 28-710 partner limits assumed): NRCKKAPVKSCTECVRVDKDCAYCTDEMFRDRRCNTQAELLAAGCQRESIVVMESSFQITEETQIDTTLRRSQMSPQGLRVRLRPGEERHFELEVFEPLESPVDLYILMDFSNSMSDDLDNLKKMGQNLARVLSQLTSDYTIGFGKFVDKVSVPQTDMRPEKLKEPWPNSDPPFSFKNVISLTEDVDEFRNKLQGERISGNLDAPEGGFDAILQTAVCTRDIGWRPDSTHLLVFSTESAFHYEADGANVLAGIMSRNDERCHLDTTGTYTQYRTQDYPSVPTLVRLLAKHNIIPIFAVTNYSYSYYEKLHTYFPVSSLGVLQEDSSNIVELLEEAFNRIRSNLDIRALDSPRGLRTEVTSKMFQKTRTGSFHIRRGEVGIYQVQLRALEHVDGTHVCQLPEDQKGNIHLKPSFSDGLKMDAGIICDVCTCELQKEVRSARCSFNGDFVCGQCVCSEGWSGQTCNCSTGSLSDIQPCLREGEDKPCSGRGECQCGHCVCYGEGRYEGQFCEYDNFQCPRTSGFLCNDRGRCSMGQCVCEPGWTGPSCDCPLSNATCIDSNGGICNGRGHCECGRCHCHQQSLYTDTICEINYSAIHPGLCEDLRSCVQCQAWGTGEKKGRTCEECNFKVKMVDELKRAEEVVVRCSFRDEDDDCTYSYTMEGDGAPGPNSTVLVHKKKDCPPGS
Method: (§1) The affinity between these 18 polypeptides and integrin α6β4 was detected by microscale thermophoresis (MST) method as follows: • 1) Integrin α6β4 protein was dissolved to 800 nM, and polypeptide was dissolved to 100 μM. • 2) A RED-tris-NTA second-generation dye was diluted to 100 nM by using the MO series RED-tris-NTA protein labeling kit. • 3) 100 μl α6β4 protein was mixed with 50 μl dye and incubated at room temperature for 30 min, so that the α6β4 protein binds to the dye. • 4) 10 μl polypeptide was transferred into a PCR tube, and was diluted with PBST (containing 0.05% Tween 20) at a ratio of 1:1 to 16 gradients of concentrations. • 5) 3 μl protein/dye mixture was transferred into a PCR tube, 3 μl of 16 different concentrations of polypeptides was respectively added and mixed well. • 6) The mixture was absorbed by capillary and loaded on machine (instrument model Monolith NT.115) to assay, parameters were set as 80% LED/excitation power and medium MST power. • 7) MO. Affinity Analysis software was used to calculate the equilibrium dissociation constant KD between α6β4 protein and polypeptide by KD fitting mode.

[3] = target: T2, integrin α6β4 (Homo sapiens, UniProt P16144+P23229); assay: as above; format: binding; conditions: MST
T2 sequence (P23229 24-1050 limits assumed): T1 sequence (P23229 24-1050 limits assumed)
T2 sequence (P16144 28-710 partner limits assumed): T1 sequence (P16144 28-710 partner limits assumed)
Method: as §1

[4] = system: tumor cells with high integrin α6 expression; assay: Flow cytometry affinity assay to tumor cells with high integrin α6 expression; format: cell-based, human
Method: (§2) The expression of integrin α6 and β4 in human hepatoma cells HCCLM3, human hepatoma cells Huh-7, human hepatoma cells Hep3B, human nasopharyngeal carcinoma cells S18 and human breast cancer cells MDA-MB-231 were detected by flow cytometry. […] Integrin β4 is expressed in HCCLM3, S18 and MDA-MB-231 cells (FIG. 3F, FIG. 3G, FIG. 3I, FIG. 3J). […] Each cell had 3 duplicate wells. • 2) 2 μl of 1 mM RWYD-PEG4-K-FITC (structural formula shown in FIG. 1B, referred to as RD) or CRWYDENAC-PEG4-K-FITC (referred to as RWY) was added into cells, mixed well, and incubate in an incubator at 37° C. for 2 hours. • 3) The culture medium containing polypeptides was absorbed and removed, the cells were washed with PBS for 3 times, 500 μl/time. • 4) The cells were digested with trypsin, resuspended with medium and centrifuged at 300 g for 5 minutes. • 5) The supernatant was discarded and cell precipitation was preserved, and the cells were resuspended with 500 μl saline and placed into the flow tube. • 6) The FITC channel was detected by flow machine and the results were analyzed by CytExpert.
(§3) RWYD-PEG4 forms dimers or polyploids via lysine (K) ligations. Flow cytometry was used to detect expression of integrin α6 in tumor cells. […] The specific operation of affinity assay of tumor cells to RD2 is similar to that of “affinity assay of tumor cells to RD”.

[5] = system: tumor cells with high integrin α6 expression (HCCLM3, Huh-7, S18, MDA-MB-231; also HT29, KYSE30, SW620, SW1990 for RD2); assay: Affinity of RD/RD2 to tumor cells with high integrin α6 expression by flow cytometry; format: cell-based, human; conditions: FITC probes, 37° C., 2 hours
Method: as §2, §3

[6] = target: T3, integrin α6β4 (Homo sapiens, UniProt P23229); assay: Affinity between polypeptide mutants and integrin α6β4 by microscale thermophoresis (MST); format: binding
T3 sequence (P23229 24-938 limits assumed): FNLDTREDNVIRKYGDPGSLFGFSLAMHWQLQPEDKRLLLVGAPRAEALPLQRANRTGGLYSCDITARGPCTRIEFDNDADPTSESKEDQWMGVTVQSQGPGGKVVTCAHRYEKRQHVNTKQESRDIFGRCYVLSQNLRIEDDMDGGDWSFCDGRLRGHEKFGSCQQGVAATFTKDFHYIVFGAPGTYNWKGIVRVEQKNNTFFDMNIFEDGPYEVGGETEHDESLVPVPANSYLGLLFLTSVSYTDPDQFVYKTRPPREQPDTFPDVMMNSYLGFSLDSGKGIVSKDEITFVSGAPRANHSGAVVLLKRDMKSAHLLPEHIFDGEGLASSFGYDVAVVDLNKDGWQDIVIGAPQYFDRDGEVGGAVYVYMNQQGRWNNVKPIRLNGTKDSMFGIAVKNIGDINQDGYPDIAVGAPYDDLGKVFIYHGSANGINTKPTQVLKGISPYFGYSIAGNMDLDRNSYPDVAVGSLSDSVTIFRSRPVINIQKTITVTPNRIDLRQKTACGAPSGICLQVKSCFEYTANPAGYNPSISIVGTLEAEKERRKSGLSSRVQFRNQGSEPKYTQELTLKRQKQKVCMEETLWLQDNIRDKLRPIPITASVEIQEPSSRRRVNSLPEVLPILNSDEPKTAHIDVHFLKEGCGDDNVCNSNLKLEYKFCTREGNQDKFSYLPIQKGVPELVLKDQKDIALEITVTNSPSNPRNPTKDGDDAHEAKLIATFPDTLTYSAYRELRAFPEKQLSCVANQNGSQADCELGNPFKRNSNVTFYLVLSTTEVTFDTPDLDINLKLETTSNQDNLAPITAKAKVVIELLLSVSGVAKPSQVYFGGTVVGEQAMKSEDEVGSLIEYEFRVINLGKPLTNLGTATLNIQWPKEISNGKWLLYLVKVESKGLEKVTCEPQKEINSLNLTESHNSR
T3 sequence (P23229 942-1050 limits assumed): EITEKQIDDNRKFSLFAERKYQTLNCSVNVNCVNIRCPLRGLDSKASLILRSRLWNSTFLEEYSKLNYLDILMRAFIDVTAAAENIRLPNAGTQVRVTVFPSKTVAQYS
T3 sequence (P16144 28-710 partner limits assumed): T1 sequence (P16144 28-710 partner limits assumed)
Method: as §1

[7] = system: Hep3B cells; assay: Flow cytometry affinity assay to Hep3B cells that do not express integrin α6; format: cell-based, human; conditions: FITC flow cytometry; Hep3B does not express integrin α6
Method: as §2, §3

[8] = system: Hep3B cells; assay: Affinity of RD/RD2 to Hep3B cells (no integrin α6 expression) by flow cytometry; format: cell-based, human; conditions: FITC probes, 37° C., 2 hours
Method: as §2, §3

[9] = system: Hep3B subcutaneous tumors without expression of integrin α6; assay: Near infrared imaging of Hep3B subcutaneous tumors; format: in vivo, mice
[10] = system: HCCLM3 subcutaneous tumors with high integrin α6 expression; assay: Near infrared imaging of HCCLM3 subcutaneous tumor bearing mice; format: in vivo; conditions: tail vein, 24 hours
Method: (§4) In the near infrared imaging of small animals, a 2 μl of 1 mM fluorescent probe RWYD-PEG4-K(ICG)-K(NOTA) (structural formula shown in FIG. 1C) was injected into the tail vein of HCCLM3 subcutaneous tumor bearing mice. After 24 hours of internal circulation, the distribution in the subcutaneous tumor bearing mice was observed.

[11] = system: HCCLM3 subcutaneous tumors with high integrin α6 expression; assay: Near infrared imaging in HCCLM3 subcutaneous tumor bearing mice; format: in vivo; conditions: 2 μl of 1 mM, tail vein, 24 hours
Method: as §4

[12] = system: Hep3B subcutaneous tumors without expression of integrin α6; assay: Near infrared imaging, Hep3B subcutaneous tumors; format: in vivo, mice

Molecule: N=C(N)NCCC[C@H](N)C(=O)N[C@@H](Cc1c[nH]c2ccccc12)C(=O)N[C@@H](Cc1ccc(O)cc1)C(=O)N[C@@H](CC(=O)O)C(=O)O [P15, RWYD] (H-RWYD-OH; N-terminus and C-terminus assumed)
Kd [1]: 53.1 ± 28.7 nM
Affinity increase relative to CRWYDENAC ([2]; integrin α6β4): 327 times
Affinity relative to RWY ([2]; relative to CRWYDENAC (RWY) = 1.00): 326.875
Kd ([3]; integrin α6β4, determination 1, read-out: KD (um) 1): 20 nM
Kd ([3]; integrin α6β4, determination 3, read-out: KD (um) 3): 26 nM
Kd ([3]; integrin α6β4, mean of 3, read-out: KD Mean value (μm)): 20 nM
Kd ([3]; integrin α6β4, read-out: KD): 21.8 ± 3.86 nM

Molecule: (RWYD-PEG4)2-K-K-FITC (not fully specified) [FITC-labeled RWYD dimer]
Affinity to tumor cells with high integrin α6 expression compared with RWYD-PEG4-K-FITC ([4]; HCCLM3, S18, HT29, Huh7, MDA-MB-231, KYSE30, SW620, SW1990): stronger affinity

Molecule: (RWYD-PEG4)2-K-K-FITC (not fully specified) [RD2]
affinity to tumor cells [5]: stronger affinity to tumor cells with high integrin α6 expression

Kd [6]: 64.8 ± 28.2 nM
affinity increase of RWYD-PEG4 dimer over RWYD-PEG4-K-NOTA ([6]; NOTA conjugates): about 10 times
Molecule: (RWYD-PEG4)2-K-K-NOTA (not fully specified)

Molecule: CRWYDENAC-PEG4-K-FITC (CRWYDENAC[PEG4′]K-{FITC′}; disulfide 1-9 (inferred)) [reference compound] [listing 1 of 2 here]
Affinity to Hep3B cells, RD versus RWY [7]: consistent

Molecule: CRWYDENAC-PEG4-K-FITC (CRWYDENAC[PEG4′]K-{FITC′}; disulfide 1-9 (inferred)) [reference compound] [listing 2 of 2 here]
affinity to Hep3B cells [8]: consistent with Hep3B cells

Molecule: RWYD-PEG4-K(ICG)-K(NOTA) [listing 1 of 2 here]
tumor uptake, near infrared imaging [9]: not high taken up
tumor uptake, near infrared imaging [10]: high taken up

Molecule: RWYD-PEG4-K(ICG)-K(NOTA) [listing 2 of 2 here]
tumor uptake, near infrared imaging [11]: high taken up by HCCLM3 subcutaneous tumors
tumor uptake, near infrared imaging [12]: not high taken up by Hep3B subcutaneous tumors

Molecule: RWYD-PEG4-K-FITC [RD] [listing 1 of 2 here]
Affinity to tumor cells with high integrin α6 expression compared with RWY ([4]; FITC flow cytometry, HCCLM3, Huh7, S18, MDA-MB-231, 37° C., 2 hours): stronger affinity
Affinity to Hep3B cells, RD versus RWY [7]: consistent

Molecule: RWYD-PEG4-K-FITC [RD] [listing 2 of 2 here]
affinity to tumor cells [5]: stronger affinity to tumor cells with high integrin α6 expression than RWY
affinity to Hep3B cells [8]: consistent with Hep3B cells
